Experimental data published in PubChem BioAssay (NCI).
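Five compound concentrations were applied to cells in 96-well plates for 48 hours; endpoints were derived by simple linear interpolation of the resulting dose-response curve. GI50 = concentration required for 50% inhibition of growth. TGI: total growth inhibition.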

What was measured:
Test in all cases: NCI anticancer screen, dose series, 48 h
[1] = test system: A498 renal
[2] = test system: CAKI-1 renal
[3] = test system: EKVX NSCLC
[4] = test system: HCT-15 colon
[5] = test system: HOP-62 NSCLC
[6] = test system: MALME-3M melanoma
[7] = test system: OVCAR-4 ovarian
[8] = test system: SF-268 CNS
[9] = test system: SF-539 CNS
[10] = test system: SK-MEL-2 melanoma

Compound	TGI [1] [µM]	TGI [2] [µM]	TGI [3] [µM]	TGI [4] [µM]	TGI [5] [µM]	TGI [6] [µM]	TGI [7] [µM]	TGI [8] [µM]	TGI [9] [µM]	TGI [10] [µM]	GI50 [1] [µM]	GI50 [2] [µM]	GI50 [3] [µM]	GI50 [4] [µM]	GI50 [6] [µM]	GI50 [7] [µM]	GI50 [8] [µM]	GI50 [9] [µM]	GI50 [10] [µM]	GI50 [5] [µM]
COc1ccc2c(c1OC)C1=C(C2=O)c2cc3c(cc2CCN1)OCO3	> 100	83	> 100	> 100	> 100	> 100	> 100	> 100	61.2	66.3										
CCNC(=O)C#CC(=O)NCC	> 100	> 100	> 100	> 61.4	> 100	> 100	> 100	> 100	> 100	> 100	> 100	> 10	> 10	> 10	> 100	> 10	> 10	> 10	> 10	
COc1ccc(C(N)=O)cc1N=NN(C)C	> 100	> 100	> 100	> 100	> 100	> 100	> 100	> 100	> 100	> 100										
CC(C)c1ccc(C(=O)Nc2sc3c(c2C#N)CCC(=O)C3)cc1	6.29	1.95	> 88.8	1.95	> 87.6	3.82	1.36	> 75	1.41	5.97	1.92	0.343	1.94	0.31	1.17	0.294	0.432	0.337	1.6	3.02
CN1CCCN(C)C1c1cc([N+](=O)[O-])ccc1O	> 100	> 100	> 100	> 100	> 100	63.7	> 100	> 100	74.9	> 100										
CN(C)CCCN1c2nc3ccccc3cc2Sc2cc3ccccc3nc21	2.96	3.01	3.23	2.87	2.58	2.89		3	2.97	2.84	1.57	1.46	1.5	1.33	1.33		1.59	1.61	1.3	1.29
O=C1C[C@@H]2C(COC(=O)c3ccccc3)N(OCc3ccccc3)C[C@@H]2O1 (stereo partly drawn)	> 100		> 100	> 100	> 100	> 100	> 100	> 100	> 100	> 100										
COC(=O)c1c2c(c(C)[n+]([O-])c1C)C(=O)C=C(NCc1ccc(F)c(F)c1)C2=O	2.43	2.13	2.26	1.44	2.5	0.301	0.666	3.32	1.67	2.37	0.931	0.313	0.685	0.235	0.139	0.177	1.07	0.487	0.874	0.86
Cc1c(C(=O)c2ccccc2C(=O)O)c2ccccc2n1C	> 100	> 100	> 100	> 100	> 100	> 100	> 100		> 100	> 100										
C#CC1(O)C(COP(=O)(O)OC2CC(n3cc(F)c(=O)[nH]c3=O)OC2CO)OC(n2ccc(N)nc2=O)C1O (stereo not drawn)	1.87	0.0813	16	> 38.9	> 100	5.07	8.49	13.5	0.22	1.66	0.0824	< 0.01	0.738	< 0.01	0.117	0.143	< 0.01	< 0.0105	0.0735	< 0.01
O=[N+]([O-])c1ccc(N/N=C/c2c(O)ccc3ccccc23)nc1	> 100	> 100	> 100	> 100	> 100	> 100	> 100	> 100	> 100	> 100	> 100	0.518	6.5	0.655	27.8	0.783	4	11.1	> 100	6.82
O=C1CSC(/C(=C\c2ccc(Cl)cc2)c2nc3ccccc3[nH]2)=N1	16	21.5	32.2	52.4	5.82	31.6	31.8	23	2.06	34.5										
COC(=O)c1sc(C(=O)OC)c2c1CSC2	> 100	> 100	> 100	> 100	> 100	> 100	> 100	> 100	> 100	> 100										
N#Cc1c(-c2ccccc2)cc(-c2ccc(Nc3nc(Nc4ccc(Cl)cc4)nc(Nc4ccc(Cl)cc4)n3)cc2)nc1N	8.72	30.4	48.8	5.1	35	3.62	> 100	19.7	3.24	3.44	1.28	11.8	16.6	1.56	1.69	4.06	4.33	1.69	1.54	19.1
CN1c2ccccc2N(C)C2C1N(C)c1ccccc1N2C (stereo not drawn)	84.1	> 100	> 100		> 100	76.4	> 100	46.6	45.8	69.6										
CC(=O)OCCOCNC(=S)N/N=C(\C)c1cnc2ccccc2n1	> 100		> 100	> 100	> 100	> 100	> 100	> 100	> 100	> 100										
